Holding throughout (test): inhibition of tumour cell growth, NCI panel, 48 h
In assay [1] the test system is CAKI-1 renal.
Assay [2] has as its system DU-145 prostate.
Assay [3] deals with HT29 colon.
Assay [4] concerns M14 melanoma.
Assay [5] deals with NCI/ADR-RES ovarian.
Assay [6] has as its system OVCAR-5 ovarian.
Assay [7] relates to PC-3 prostate.
The subject of assay [8] is SK-MEL-28 melanoma.
Assay [9] relates to SNB-75 CNS.
The subject of assay [10] is MALME-3M melanoma.

Experimental findings from PubChem BioAssay (NCI) are described below.

“And” between values parts separate entries of the source, which are not always exact repeats. Equal entries are not always repeated.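 A five-concentration, 48-hour dose response in 96-well plates underlies each endpoint, interpolated linearly between surrounding concentrations. GI50: concentration for 50% inhibition of growth. TGI denotes the concentration required for complete inhibition of growth.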

`COc1cc2c(cc1OC)-c1ncc3cc(OC)c(OC)cc3c1C2`: the GI50 in assay [1], in [2], in [3], in [4], in assay [5] and in assay [6] was greater than 50 µM each time. The GI50 in [7], in assay [8] and in assay [9] was greater than 50 µM throughout. Besides, the TGI in [1], in assay [2], in assay [3], in assay [4], in assay [5] and in assay [6] was greater than 50 µM in each case. For the same compound, the TGI in assay [7], in [8] and in assay [9] was greater than 50 µM in each case.

In the case of `Cc1nc2ccccc2c(/C=C/c2ccccc2)c1C(=O)/C=C/c1ccccc1`, the GI50 in [3] is 2.61 µM; in assay [10], 1.76 µM; in [5], 2.71 µM; in [6], 1.93 µM; in assay [8], 1.83 µM. Moreover, the TGI was 12 µM in assay [3]; 3.24 µM in assay [10]; 8.35 µM in assay [5]; 3.52 µM in assay [6]; 3.3 µM in assay [8].

In the case of `Cc1ccccc1C[P+](c1ccccc1)(c1ccccc1)c1ccccc1`, the GI50 in assay [1] is 23.6 µM; in assay [2], 2.18 µM; in [3], 0.849 µM; in assay [10], 4.72 µM; in [5] it was greater than 100 µM; in assay [6] it was 2.86 µM. Moreover, the values for the GI50 in [8] and in assay [9] were 2.1 µM and 1.21 µM, respectively. The TGI in assay [1] was greater than 100 µM; in assay [2], greater than 100 µM; in assay [3] it was 14.8 µM; in [10], greater than 100 µM; in [5], greater than 100 µM; in assay [6] it was greater than 100 µM. Besides, the figures for the TGI in [8] and in assay [9] were 44 µM and 16.2 µM, respectively.

`CCCCCCC(O)C(O)CCC(O)C1CCC(CCCCC(O)CC2=CC(C)OC2=O)O1` (configuration not stated): the GI50 in assay [1] is 17.1 µM; in assay [4] it was 17.7 µM; in assay [5], 11 µM; in [6], 23.7 µM; in assay [7] it was 13.1 µM; in [8] it was 26 µM. For the same compound, in assay [9], the GI50 was 24.1 µM. The TGI in [1] is 41.6 µM; in assay [3], 6.82 µM; in [4], 36 µM; in [10], 33.8 µM; in assay [5], 7.03 µM and 29.3 µM; in [6] it was 46.2 µM. Also, the TGI in [7] was 33.1 µM; in [8], 62.5 µM; in assay [9], 60.8 µM.

Consider `CCC(C)(C)NS(=O)(=O)c1ccccc1`, for which the TGI in assay [1], in [3], in assay [4], in [10], in [6] and in [8] was greater than 100 µM each time. The same compound came in with a TGI in assay [9] greater than 100 µM.

Take `CCOC(=O)C(=O)C(/C(=N/N(C)C)C(=O)Nc1ccc(C)cc1C)c1nc2ccccc2[nH]c1=O` (configuration not stated): the TGI in assay [1], in assay [3], in assay [4], in assay [10], in [5] and in [6] was greater than 100 µM each time. Further, the TGI in [7], in [8] and in assay [9] was greater than 100 µM in each case.

Turning to `Cn1cc2ccccc2c1-c1nc(F)nc(Nc2ccc(N)cc2)n1`, the TGI in assay [1] came out at 45 µM; in [3], 57.3 µM; in assay [4] it was 27.3 µM; in assay [10], 39.2 µM; in assay [6], 61.9 µM; in [8], 30.6 µM. The compound also displayed a TGI in [9] of 42.9 µM.

As to `COc1cc(OC)cc(C(=O)Cc2c(C(=O)c3ccccc3)c3ccccc3n2C(=O)c2ccccc2)c1`, the TGI in [1], in [3], in assay [4], in assay [10], in [6] and in [8] was greater than 100 µM in each case. In assay [9], this compound registered a TGI greater than 100 µM.

For `C[C@H](C(O)CC(=O)C(C)(C)O)[C@H]1CC[C@@]2(C)[C@@H]3CC[C@H]4C(C)(C)[C@@H](OC5OC(COC6OC(CO)C(O)C(O)C6O)C(O)C(O)C5O)CC[C@]4(C)C3=CC[C@]12C` (some centres not stated), the TGI in assay [1], in assay [2], in assay [3], in assay [4], in [10] and in assay [6] was greater than 100 µM each time. Also, the TGI in [7], in assay [8] and in assay [9] was greater than 100 µM each time.

Turning to `CC(=O)OC1(C#N)CC2OC1C1N=NN(C(=O)OC(C)(C)C)C21` (configuration not stated), the TGI was greater than 31.6 µM in [1]; greater than 100 µM in assay [3]; 51.2 µM in [4]; greater than 68.2 µM in [10]; greater than 100 µM in [6]; 35.6 µM in assay [8]. Also, the TGI in assay [9] is greater than 100 µM.

Regarding `CC(C)c1cc(C(=O)[O-])c(O)c(C(C)C)c1.CC(C)c1cc(C(=O)[O-])c(O)c(C(C)C)c1.CC(C)c1cc(C(=O)[O-])c(O)c(C(C)C)c1.CC(C)c1cc(C(=O)[O-])c(O)c(C(C)C)c1.CC(C)c1cc(C(=O)[O-])c(O)c(C(C)C)c1.CC(C)c1cc(C(=O)[O-])c(O)c(C(C)C)c1.[Cu+2].[Mn+2].[Mn+2]`, the GI50 in assay [1] was 30.9 µM; in assay [3], 15.6 µM; in [4] it was 14.8 µM; in [10], 15.1 µM; in assay [6] it was 28.2 µM; in assay [8], 20.5 µM. The GI50 in [9] was 24.8 µM. The TGI in [1] is 53.3 µM; in assay [3], 31.4 µM; in assay [4], 30.4 µM; in assay [10] it was 28.7 µM; in assay [6] it was 49.3 µM; in [8], 45.3 µM. Besides, the TGI in [9] came out at 68.7 µM.

On to `COC(=O)c1ccc(/C=C/S(=O)(=O)c2ccccc2)cc1`, for which the TGI in [1], in [3], in assay [4], in [10], in assay [6] and in assay [8] was greater than 100 µM in each case. Moreover, the TGI in [9] was greater than 100 µM.

In the case of `COC(=O)C1=C(O)c2cc3c(cc2[C@H](c2cc(OC)c(OC)c(OC)c2)C1)OCO3`, the TGI in assay [1], in [3], in [4], in [10], in assay [6] and in assay [8] was greater than 100 µM each time. The compound further had a TGI in [9] greater than 100 µM.

As for `COc1ccc(/C=C2\CCc3ccccc3C2=O)cc1OC`, the TGI in [1] is greater than 100 µM; in assay [3], greater than 100 µM; in assay [4], 50 µM; in assay [10] it was greater than 100 µM; in assay [6], greater than 100 µM; in assay [8], 73.2 µM. In assay [9], this compound yielded a TGI of 76.9 µM.

As to `C/C=C(\C)C(=O)N1c2ccccc2CC1c1c(C)[nH]c2ccccc12` (configuration not stated), the TGI in assay [1], in assay [3], in [4], in [10], in [6] and in [8] was greater than 100 µM in each case. The same compound showed a TGI in [9] greater than 100 µM.

Take `N/C(=N\N=C\c1ccc(O)c(O)c1)NO`: the TGI in assay [1], in assay [3], in assay [4], in assay [10], in [6] and in [8] was greater than 100 µM each time. In addition, the TGI in assay [9] is greater than 100 µM.

In the case of `CC(C)Cc1ccc(C(C)/C=C2\CCC(CN3CCCCC3)C2=O)cc1` (configuration not stated), the TGI in [1] was 20.4 µM; in assay [2], 31 µM; in assay [3] it was 15.9 µM; in assay [4], 18.2 µM; in [10] it was 31.1 µM; in assay [6] it was 31.6 µM. In addition, the TGI in assay [7] is 17.5 µM; in assay [8], 11 µM; in assay [9], 33.7 µM.

As to `CCN(CC)CCC(=O)N1C/C(=C/c2ccccc2)C(=O)/C(=C\c2ccccc2)C1`, the TGI in assay [1] was found to be 5.08 µM; in [2], 12.5 µM; in [3] it was 2.24 µM; in assay [4] it was 6.63 µM; in assay [10], 7.36 µM; in [6], 9.76 µM. For the same compound, the TGI stood at 2.9 µM in assay [7], 4.16 µM in [8] and 12.5 µM in assay [9].

Consider `COc1c(Cl)[c]([Hg][O]C(C)=O)c(NCC(C)=O)c(OC)[c]1[Hg][O]C(C)=O`, for which the GI50 in [1] is 20.2 µM; in [3], 19.5 µM; in assay [4] it was 14.7 µM; in assay [10] it was 2.7 µM; in assay [6], 38.7 µM; in assay [8] it was 13.3 µM. The GI50 in assay [9] is 13.9 µM. The TGI in assay [1] was 35.1 µM; in assay [3], 48.2 µM; in [4], 28.6 µM; in assay [10] it was 7.89 µM; in assay [6], 90.9 µM; in [8] it was 26.2 µM. For the same compound, the TGI in [9] was 32.5 µM.

`COc1ccc2c(c1)c(-c1ccc(-c3cn(C)c4ccc(OC)cc34)o1)cn2C`: the GI50 in [1] is 17.1 µM; in assay [2], greater than 100 µM; in assay [3], 22 µM; in assay [4], 16.7 µM; in assay [10], 52.8 µM; in assay [5], 3.86 µM. The GI50 in [6] was 2.79 µM; in [8], 14 µM; in [9] it was 13.6 µM. Moreover, the TGI in assay [1] was greater than 100 µM; in assay [2], greater than 100 µM; in assay [3], greater than 100 µM; in [4], greater than 100 µM; in [10] it was greater than 100 µM; in assay [5] it was 16.6 µM. Besides, the TGI in assay [6] was 10.6 µM; in [8], 80.1 µM; in assay [9] it was 53.7 µM.

With `CC(C)C1=CC23CCC4C(C)(C(=O)O)CCCC4(C)C2CC1C1C(=O)N(c2cccc(N4C(=O)C5C6CC7C8(C)CCCC(C)(C(=O)O)C8CCC7(C=C6C(C)C)C5C4=O)c2)C(=O)C13` (configuration not stated), the TGI in assay [2] is 22.7 µM; in assay [3], 10.8 µM; in [4] it was 25.5 µM; in [10], 32.9 µM; in assay [6] it was 20 µM; in assay [7], 17.9 µM. The TGI in [8] is 21.6 µM.

Regarding `COc1cc2c(cc1OC)-c1ncc3cc(OC)c(OC)c(OC)c3c1C2`, the GI50 in [1] is 20.5 µM; in assay [2] it was 21.7 µM; in assay [4], 45.2 µM; in [5], 19.1 µM; in [6] it was 57.3 µM; in assay [7] it was 17.1 µM. The GI50 in [8] is 46.7 µM; in assay [9], 72 µM. In addition, the TGI is 86.1 µM in [1]; greater than 100 µM in assay [2]; greater than 100 µM in assay [4]; 89.2 µM in assay [5]; greater than 100 µM in assay [6]; greater than 100 µM in assay [7]. Also, the TGI in assay [8] and in assay [9] was greater than 100 µM throughout.

As for `OCCCCCNc1ccnc2cc(Cl)ccc12`, the TGI in [1], in assay [3], in assay [4], in assay [10], in assay [6] and in assay [8] was greater than 100 µM in each case. In assay [9], this compound came in with a TGI greater than 100 µM.

With `CC(C)C1NC(=O)[C@H](C)OC(=O)[C@@H](C(C)C)NC(=O)[C@@H](C)OC(=O)C(C(C)C)NC(=O)[C@H](C)OC1=O` (some centres not stated), the TGI in [1], in [3], in [4], in [10], in [6] and in [8] was greater than 100 µM each time. In assay [9], the TGI was greater than 100 µM.
